# Test results published in ChEMBL document CHEMBL3596172 (J Med Chem, 2015).
# Target: D(3) dopamine receptor (Homo sapiens, UniProt P35462)
# Experiment: biochemical
# Description: Displacement of [3H]-N-methylspiperone from human dopamine D3 receptor (unknown origin) expressed in HEK293 cells after 1 hr by liquid scintillation counting
# D(3) dopamine receptor, sequence (P35462 whole entry): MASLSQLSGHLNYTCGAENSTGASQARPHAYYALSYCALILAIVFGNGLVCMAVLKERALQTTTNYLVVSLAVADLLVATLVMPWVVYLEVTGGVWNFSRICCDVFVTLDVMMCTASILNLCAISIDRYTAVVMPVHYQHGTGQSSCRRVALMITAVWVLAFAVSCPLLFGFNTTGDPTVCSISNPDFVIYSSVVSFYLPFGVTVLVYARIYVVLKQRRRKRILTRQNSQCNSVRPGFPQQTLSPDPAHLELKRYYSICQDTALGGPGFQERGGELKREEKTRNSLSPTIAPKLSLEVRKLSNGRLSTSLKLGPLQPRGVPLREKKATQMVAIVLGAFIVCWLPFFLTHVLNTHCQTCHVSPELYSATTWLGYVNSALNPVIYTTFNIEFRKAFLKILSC
row,Structure (SMILES),Ki [nM]
1,COc1c(Cl)cccc1N1CCN(CC(O)CCNC(=O)c2cnc3ccccc3c2)CC1 (stereo not given),31.6
2,COc1ccc2ncc(C(=O)NCCC(O)CN3CCN(c4ccccc4OC)CC3)cc2c1 (stereo not given),69.9
3,COc1ccccc1N1CCN(CC(O)CCNC(=O)c2ccc3cccnc3c2)CC1 (stereo not given),37.7
4,O=C(NCCCCN1CCN(c2cccc3ccccc23)CC1)c1cc2ccccc2o1,0.244
5,COc1ccccc1N1CCN(CCCCNC(=O)c2ccc3ccccc3n2)CC1,3.46
6,COc1ccccc1N1CCN(CC(O)CCNC(=O)c2cnc3ccc(C)cc3c2)CC1 (stereo not given),52.9
7,COc1c(Cl)cccc1N1CCN(CCCCNC(=O)c2cc3ccccc3o2)CC1,0.907
8,O=C(NCCC(O)CN1CCN(c2cccc(Cl)c2Cl)CC1)c1cnc2ccc(F)cc2c1 (stereo not given),8.05

# Second part, the compound after the results:
row,Ki [nM],Structure (SMILES)
1,97.9,COc1ccccc1N1CCN(CC(O)CCNC(=O)c2ccc3ccccc3n2)CC1 (stereo not given)
2,0.57,O=C(NCCCCN1CCN(c2cccc(Cl)c2Cl)CC1)c1cnc2ccc(F)cc2c1
3,2.51,COc1ccccc1N1CCN(CCCCNC(=O)c2ccc3cc(F)ccc3n2)CC1
4,0.173,COc1ccc2[nH]c(C(=O)NCCCCN3CCN(c4cccc5ccccc45)CC3)cc2c1
5,44.8,COc1ccccc1N1CCN(CC(O)CCNC(=O)c2cnc3ccc(F)cc3c2)CC1 (stereo not given)
6,53.1,COc1ccccc1N1CCN(CC(O)CCNC(=O)c2ccc3cc(F)ccc3n2)CC1 (stereo not given)
7,2.14,COc1ccccc1N1CCN(CCCCNC(=O)c2cnc3ccc(F)cc3c2)CC1
